Measured values reported in patent publication US4720486A, “Method of inhibiting vertebrate collagenase activity using peptide hydroxamic acid derivatives” (Monsanto Company, priority 1987, dated 1988).
Where a SMILES comes first, the peptide text is derived from it. The star is where a group is joined. Cbz = O=C(OCc1ccccc1)*; NHOH = ON*

How the values were obtained:
Type in all cases: biochemical
[1] = biological target: T1, human synovial collagenase (Homo sapiens, UniProt P03956); test: Collagenase inhibition test (14C-collagen assay), synovial collagenase; conditions: for Ki: 0.50 M NaCl, 0.01 M CaCl2, 0.05 M Tris, pH 7.5, 35° C., Dixon plot, single substrate concentration 10 μM collagen
T1 construct: endogenous in cells; host or cells: primary human synovial cells from a knee synovectomy, stimulated with SK Hepatoma conditioned medium
T1 sequence (P03956 100-469): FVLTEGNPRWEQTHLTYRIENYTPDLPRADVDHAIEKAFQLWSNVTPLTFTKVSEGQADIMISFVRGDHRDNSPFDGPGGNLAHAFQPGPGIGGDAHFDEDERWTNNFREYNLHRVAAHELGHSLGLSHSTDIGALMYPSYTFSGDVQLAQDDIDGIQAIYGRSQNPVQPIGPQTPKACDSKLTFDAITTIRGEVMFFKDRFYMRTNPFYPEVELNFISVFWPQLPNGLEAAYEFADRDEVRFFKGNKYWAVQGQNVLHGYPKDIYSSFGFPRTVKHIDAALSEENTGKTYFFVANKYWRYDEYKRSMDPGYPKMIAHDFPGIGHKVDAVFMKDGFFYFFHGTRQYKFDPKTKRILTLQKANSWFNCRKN
Description: (§1) ^14 C-collagen was prepared by reductive methylation of calf skin collagen at 4° C. using ^14 C-formaldehyde and sodium borohydride. Calf skin collagen (Sigma) was dissolved at 7.5 mg/ml in 60 ml of 0.10M acetic acid and dialyzed at 4° C. against 0.15M potassium phosphate, pH 7.6, for eight hours followed by dialysis overnight against 0.4M NaCl. The collagen solution was then adjusted to pH 9.0 by addition of 0.50M sodium borate and then 1 mCi of ^14 C-formaldehyde (10 mCi/mmol) was added. After one minute, 0.10M sodium borohydride (660 μl in 1.3 mM NaOH) was added in four aliquots, followed by an additional aliquot (340 μl) 30 minutes later. The solution was then dialyzed exhaustively against 0.01M acetic acid, centrifuged to remove particulates and stored frozen in 1 ml aliquots. Specific activity was 1.3×10^6 DPM/mg. Unlabeled collagen was prepared in the same way, stored frozen and mixed with labeled collagen at a ratio of 9 to 1. For assay, the diluted ^14 C-collagen was dialyzed 6-8 hours at 4° C. against 0.15M potassium phosphate, pH 7.6, followed by dialysis overnight against 0.4M sodium chloride. This solution was centrifuged to remove any undissolved collagen and stored at 4° C.
(§2) Collagenase asays were carried out according to the method of Terato et al., Biochim. Biophys. Acta 445, 753 (1976). They were performed in 1.5 ml polypropylene microfuge tubes. Each assay tube contained 50 μl of ^14 C-collagen solution (4 mg/ml) and 50 μl of 1.0M glucose, 0.10M Tris, 0.4M NaCl, 0.02M CaCl2, pH 7.5. This solution was incubated for ten minutes at 35° C. and the reaction initiated by the addition of 100 μl of enzyme solution. Those samples containing procollagenase were first activated by incubating 100 μl aliquots with 1-5 μl of 10 mg/ml trypsin (in 1 mM HCl) for 20 minutes at 23° C., followed by 20 μl of 5 mg/ml soybean trypsin inhibitor (in 0.05M Tris, 0.01M CaCl2, pH 7.5) to quench the trypsin activity. The collagenase assay was terminated after 30 minutes at 35° C. by the addition of 20 μl of 0.08M 1,10-phenanthroline in 50% (v/v) dioxane and the incubation was continued for one hour at 35° C. to denature the collagen digestion products. Each sample was cooled for 15 minutes at 23° and 200 μl of dioxane was added with vigorous vortexing to precipitate uncleaved collagen. Following centrifugation at 11,000 RPM, 350 μl aliquots were added to 5.0 ml of Pico-Fluor 30 to determine radioactivity.
(§3) Collagenase activities were measured in the presence of the test compounds by adding an aliquot of the compound (0-85 μl) and buffer to 100 μl of glucose-collagen solution to give a total volume of 185 μl, incubating at 35° C. for 10 minutes and then initiating the reaction with 15 μl of purified collagenase. The rest of the assay was performed as described above.
(§4) To determine the mechanism of inhibition, the following equation was used [(Holmquist and Vallee, J. Biol. Chem. 249, 4601 (1974)] [formula] where Ao is the activity in the absence of inhibitor and AI is the activity in the presence of inhibitor.
Approximately 2.0 gms of synovial tissue were obtained from a patient undergoing synovectomy of the knee. All procedures were carried out in a laminar flow hood under aseptic conditions. The tissue was placed in 250 ml McCoys 5A (modified) medium containing 200 μg/ml gentamicin and stored overnight at 0° C. The next day the tissue was warmed to room temperature, cut into 0.25 cm pieces and added to 11 ml of serum-free DMEM, containing 4 mg/ml clostridial collagenase (Worthington). After incubating the mixture for one hour at room temperature, an equal volume of 0.25% trypsin was added and the incubation continued for an additional thirty minutes. The cells were spun down at 400×g for ten minutes, resuspended in 20 ml trypsin/EDTA (Gibco 10×) and incubated for 30 minutes with occasional mixing by drawing through a 25 ml pipet. The suspension was centrifuged and the pellet was washed two times with PBS:DMEM (1:1) containing 10% FBS. […]

[2] = biological target: T2, human skin fibroblast collagenase (Homo sapiens, UniProt P03956); test: Collagenase inhibition test (14C-collagen assay), skin fibroblast collagenase; conditions: 0.50 M NaCl, 0.01 M CaCl2, 0.05 M Tris, pH 7.5, 35° C.; Dixon plot, single substrate concentration 10 μM collagen
T2 construct: active collagenase isolated by this method consisted of two bands, a major species with molecular weight 45,000; host or cells: normal human skin fibroblasts CRL 1224 in SK Hepatoma conditioned medium
T2 sequence (P03956 100-469): T1 sequence (P03956 100-469)
Description: as §1, §2, §3, §4
One vial of normal skin fibroblasts was purchased (American Type Cell Culture CRL 1224), thawed at 37° C. and transferred to a 150 cm^2 T-flask. Fifty ml of DMEM containing 10% FBS were added and the cells incubated for one week at 37° C. under 5% CO2. The cells were then split into three T-flasks. When the flasks became overgrown with cells, normal media was replaced with SK Hepatoma conditioned media and changed twice a week. This media was stored and used as the starting material for collagenase isolation.
The other test compounds were assumed to inhibit by the same mechanism so that all studies were performed at only a single substrate concentration, 10μM, and the KI values were determined from the intersection with the abscissa.

[3] = biological target: T3, human collagenase isolated from skin fibroblasts and synovial cells (Homo sapiens, UniProt P03956); test: Collagenase inhibition, (enzyme source not distinguished)
T3 construct: endogenous in cells; host or cells: human skin fibroblasts (CRL 1224) or primary human synovial cells; enzyme purified from conditioned medium
T3 sequence (P03956 100-469): T1 sequence (P03956 100-469)
Description: as §1, §2
as §3, with “above. […]” for “above.”

Row | SMILES | Ki [1] [µM] | Ki [2] [µM] | further results
1 | NCC(=O)NO [Gly--NHOH] | 18000 | > 1000 | 
2 | CC(NC(=O)OCc1ccccc1)C(=O)NCC(=O)NO (centres unmarked) [Z--Ala--Gly--NHOH] | 2600 | 1300 | 
3 | O=C(CNC(=O)CNC(=O)OCc1ccccc1)NO [Z--Gly--Gly--NHOH] (Cbz-Gly-Gly-{NHOH}) | 2000 | 3000 | 
4 | O=C(CNC(=O)OCc1ccccc1)NO [Z--Gly--NHOH] | 960 | 600 | 
5 | CC(C)CC(NC(=O)OCc1ccccc1)C(=O)NCC(=O)NO (centres unmarked) [Z--Leu--Gly--NHOH] | 170 | 480 | 
6 | CC(C)C[C@H](NC(=O)OCc1ccccc1)C(=O)N[C@@H](CC(C)C)C(=O)NCC(=O)NO [Z--Leu--Leu--Gly--NHOH] (Cbz-Leu-Leu-Gly-{NHOH}) | 330 | 300 | 
7 | CSCCC(NC(=O)OCc1ccccc1)C(=O)NCC(=O)NO (centres unmarked) [Z--Met--Gly--NHOH] | 200 | 150 | 
8 | O=C(CNC(=O)C(Cc1ccccc1)NC(=O)OCc1ccccc1)NO (centres unmarked) [Z--Phe--Gly--NHOH] | 100 | 150 | 
9 | CC(C)C[C@H](NC(=O)[C@@H]1CCCN1C(=O)OCc1ccccc1)C(=O)NCC(=O)NO [Z--Pro--Leu--Gly--NHOH, N-Benzyloxycarbonyl-L-prolyl-L-leucylglycine Hydroxamic Acid] (Cbz-Pro-Leu-Gly-{NHOH}) | 47 | 40 | mechanism of inhibition (Dixon plot) ([1]; three substrate concentrations, 3.9 μM, 1.3 μM and 0.7 μM collagen, FIG. 1): non-competitive inhibition; times more active than Zincov ([3]; estimated, ratio of KI values): 50 to 100 times; KI ([3]; human collagenase): 40 µM; times more effective than the corresponding Z--Leu--Leu--Gly--NHOH analog ([3]; ratio of KI values): ten
10 | CC(C)CC(C(=O)NO)C(=O)N[C@@H](C)C(=O)NCC(N)=O (stereo partly drawn) [Zincov, 2-(N-Hydroxycarboxamido)-4-methylpentanoyl-L-Ala-glycine amide] |  |  | Ki ([3]; human collagenase): 2000 µM
